In patent publication US20230074545A1, “TREATMENT OF CANCER WITH CDK12/13 INHIBITORS” (Kinnate Biopharma Inc., priority 2019, published 2023):

Legend:
Test in all cases: Radiometric kinase panel
Type in all cases: biochemical
YES = target: T1, YES (Homo sapiens, UniProt P07947)
T1 construct: either as full-length or enzymatically active fragments; purchased ProQinase GmbH (Reaction Biology)
Outline: (§1)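 Activity was measured radiometrically from [gamma-33P]-ATP incorporation into substrate. The kinases were recombinant human GST- or His-tagged proteins, full-length or active fragments, expressed in Sf9 or E. coli. Compound in 10% DMSO was added before the enzyme/substrate mix, which started the reaction.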

DYRK2 = target: T2, DYRK2 (Homo sapiens, UniProt Q92630)
T2 construct: purchased ProQinase GmbH (Reaction Biology); host or cells: Sf9 insect cells or E. coli (not specified per kinase)
Outline: as §1

MST2 = target: T3, MST2 (Homo sapiens, UniProt Q13188)
T3 construct: purchased ProQinase GmbH (Reaction Biology)
T3 sequence (Q13188 whole entry): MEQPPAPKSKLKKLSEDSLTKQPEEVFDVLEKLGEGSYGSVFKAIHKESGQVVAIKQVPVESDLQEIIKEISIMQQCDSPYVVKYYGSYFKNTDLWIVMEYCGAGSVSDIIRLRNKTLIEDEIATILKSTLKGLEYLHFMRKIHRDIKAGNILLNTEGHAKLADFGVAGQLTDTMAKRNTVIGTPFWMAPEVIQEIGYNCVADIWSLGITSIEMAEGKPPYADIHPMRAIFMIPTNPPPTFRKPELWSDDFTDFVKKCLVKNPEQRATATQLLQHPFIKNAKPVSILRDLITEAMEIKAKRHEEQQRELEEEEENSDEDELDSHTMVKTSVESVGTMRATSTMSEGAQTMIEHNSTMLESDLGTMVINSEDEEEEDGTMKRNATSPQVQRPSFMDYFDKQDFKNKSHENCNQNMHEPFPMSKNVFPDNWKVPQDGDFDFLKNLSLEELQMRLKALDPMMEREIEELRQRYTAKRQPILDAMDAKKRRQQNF
Outline: as §1

TTK = target: T4, TTK (Homo sapiens, UniProt P33981)
T4 construct: either as full-length or enzymatically active fragments; purchased ProQinase GmbH (Reaction Biology); host or cells: Sf9 insect cells or E. coli
T4 sequence (P33981 whole entry, the tested form may be a part): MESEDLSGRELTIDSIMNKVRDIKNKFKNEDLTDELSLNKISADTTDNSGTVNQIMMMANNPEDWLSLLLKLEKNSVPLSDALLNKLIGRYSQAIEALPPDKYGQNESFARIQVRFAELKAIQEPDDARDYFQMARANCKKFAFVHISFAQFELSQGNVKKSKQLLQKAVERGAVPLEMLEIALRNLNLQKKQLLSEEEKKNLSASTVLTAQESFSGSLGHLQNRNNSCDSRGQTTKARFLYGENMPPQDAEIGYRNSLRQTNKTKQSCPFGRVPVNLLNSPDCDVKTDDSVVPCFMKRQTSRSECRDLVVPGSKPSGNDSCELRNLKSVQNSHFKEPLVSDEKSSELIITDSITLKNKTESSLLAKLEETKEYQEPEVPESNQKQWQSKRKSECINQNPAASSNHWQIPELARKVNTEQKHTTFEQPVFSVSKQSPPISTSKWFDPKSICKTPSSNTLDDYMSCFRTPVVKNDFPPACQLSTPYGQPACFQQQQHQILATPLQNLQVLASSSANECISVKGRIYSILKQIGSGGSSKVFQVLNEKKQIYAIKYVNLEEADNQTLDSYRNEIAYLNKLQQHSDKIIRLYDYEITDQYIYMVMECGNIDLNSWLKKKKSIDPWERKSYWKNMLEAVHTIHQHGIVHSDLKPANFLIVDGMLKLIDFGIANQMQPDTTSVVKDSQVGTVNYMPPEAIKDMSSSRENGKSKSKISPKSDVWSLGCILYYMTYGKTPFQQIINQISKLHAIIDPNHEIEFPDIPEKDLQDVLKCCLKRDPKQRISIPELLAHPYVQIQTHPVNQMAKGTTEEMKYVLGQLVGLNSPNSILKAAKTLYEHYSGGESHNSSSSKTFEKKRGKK
Outline: as §1

S6Kbeta = target: T5, S6Kbeta (Homo sapiens, UniProt Q9UBS0)
T5 construct: purchased ProQinase GmbH (Reaction Biology); host or cells: Sf9 insect cells or E. coli (not specified per kinase)
T5 sequence (Q9UBS0 whole entry): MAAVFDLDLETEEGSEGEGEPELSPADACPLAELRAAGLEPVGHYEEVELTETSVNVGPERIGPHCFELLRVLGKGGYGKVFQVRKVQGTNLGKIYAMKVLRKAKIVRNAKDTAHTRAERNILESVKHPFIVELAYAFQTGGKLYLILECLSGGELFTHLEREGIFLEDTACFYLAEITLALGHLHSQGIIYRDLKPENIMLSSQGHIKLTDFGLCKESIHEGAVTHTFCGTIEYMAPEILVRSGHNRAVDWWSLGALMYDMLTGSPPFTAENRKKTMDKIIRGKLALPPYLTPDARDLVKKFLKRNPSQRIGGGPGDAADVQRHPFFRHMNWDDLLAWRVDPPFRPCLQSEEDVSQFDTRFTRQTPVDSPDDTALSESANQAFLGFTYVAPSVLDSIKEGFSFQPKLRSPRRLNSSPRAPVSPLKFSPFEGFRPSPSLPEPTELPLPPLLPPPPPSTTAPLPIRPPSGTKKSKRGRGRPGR
Outline: as §1

TSSK1 = target: T6, TSSK1 (Homo sapiens, UniProt Q9BXA7)
T6 construct: either as full-length or enzymatically active fragments; purchased ProQinase GmbH (Reaction Biology)
Outline: as §1

CDK12/CycK = target: T7, CDK12/CycK (Homo sapiens, UniProt Q9NYV4)
T7 construct: either as full-length or enzymatically active fragments; purchased ProQinase GmbH (Reaction Biology)
Outline: as §1

CAMK2A = target: T8, CAMK2A (Homo sapiens, UniProt Q9UQM7)
T8 construct: either as full-length or enzymatically active fragments; purchased ProQinase GmbH (Reaction Biology)
Outline: as §1

ERBB4 = target: T9, ERBB4 (Homo sapiens, UniProt Q15303)
T9 construct: either as full-length or enzymatically active fragments; purchased ProQinase GmbH (Reaction Biology); host or cells: Sf9 insect cells or E. coli (not specified per kinase)
Outline: as §1

DAPK1 = target: T10, DAPK1 (Homo sapiens, UniProt P53355)
T10 construct: either as full-length or enzymatically active fragments; purchased ProQinase GmbH (Reaction Biology); host or cells: Sf9 insect cells or E. coli
Outline: as §1

RIPK2 = target: T11, RIPK2 (Homo sapiens, UniProt O43353)
T11 construct: either as full-length or enzymatically active fragments; purchased ProQinase GmbH (Reaction Biology)
Outline: as §1

BRAF = target: T12, BRAF (Homo sapiens, UniProt P15056)
T12 construct: purchased ProQinase GmbH (Reaction Biology)
Outline: as §1

SRPK2 = target: T13, SRPK2 (Homo sapiens, UniProt P78362)
T13 construct: purchased ProQinase GmbH (Reaction Biology)
Outline: as §1

CLK1 = target: T14, CLK1 (Homo sapiens, UniProt P49759)
T14 construct: either as full-length or enzymatically active fragments; purchased ProQinase GmbH (Reaction Biology)
Outline: as §1

TYRO3 = target: T15, TYRO3 (Homo sapiens, UniProt Q06418)
T15 construct: either as full-length or enzymatically active fragments; purchased ProQinase GmbH (Reaction Biology)
Outline: as §1

EPHA4 = target: T16, EPHA4 (Homo sapiens, UniProt P54764)
T16 construct: either as full-length or enzymatically active fragments; purchased ProQinase GmbH (Reaction Biology)
T16 sequence (P54764 20-986): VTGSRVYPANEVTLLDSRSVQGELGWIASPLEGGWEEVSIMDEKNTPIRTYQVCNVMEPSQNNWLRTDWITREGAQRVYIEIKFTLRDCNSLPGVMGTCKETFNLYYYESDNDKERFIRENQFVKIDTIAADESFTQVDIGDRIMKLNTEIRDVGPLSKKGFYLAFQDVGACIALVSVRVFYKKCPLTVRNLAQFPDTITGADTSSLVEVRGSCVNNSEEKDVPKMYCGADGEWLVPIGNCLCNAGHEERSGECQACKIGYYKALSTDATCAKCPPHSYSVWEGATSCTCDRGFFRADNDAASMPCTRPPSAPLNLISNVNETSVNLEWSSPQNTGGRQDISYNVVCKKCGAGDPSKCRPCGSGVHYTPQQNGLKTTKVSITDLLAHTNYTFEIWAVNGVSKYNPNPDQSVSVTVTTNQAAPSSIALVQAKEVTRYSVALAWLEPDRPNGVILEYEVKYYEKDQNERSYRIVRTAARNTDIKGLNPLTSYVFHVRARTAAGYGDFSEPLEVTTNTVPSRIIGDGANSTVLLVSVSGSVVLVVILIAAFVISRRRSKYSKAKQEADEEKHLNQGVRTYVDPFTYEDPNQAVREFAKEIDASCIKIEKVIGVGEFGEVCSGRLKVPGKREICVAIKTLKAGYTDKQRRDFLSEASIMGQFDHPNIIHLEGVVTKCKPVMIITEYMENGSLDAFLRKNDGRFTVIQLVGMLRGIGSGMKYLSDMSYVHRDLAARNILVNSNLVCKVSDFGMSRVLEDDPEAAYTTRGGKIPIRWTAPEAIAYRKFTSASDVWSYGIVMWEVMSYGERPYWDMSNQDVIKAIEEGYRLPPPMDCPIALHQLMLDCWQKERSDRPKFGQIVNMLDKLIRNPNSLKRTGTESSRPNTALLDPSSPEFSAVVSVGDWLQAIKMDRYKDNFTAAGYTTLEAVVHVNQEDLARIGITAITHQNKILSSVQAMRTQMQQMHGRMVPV
Outline: as §1

STK39 = target: T17, STK39 (Homo sapiens, UniProt Q9UEW8)
T17 construct: either as full-length or enzymatically active fragments; purchased ProQinase GmbH (Reaction Biology)
Outline: as §1

CK1gamma1 = target: T18, CK1gamma1 (Homo sapiens, UniProt Q9HCP0)
T18 construct: either as full-length or enzymatically active fragments; purchased ProQinase GmbH (Reaction Biology)
Outline: as §1

BTK = target: T19, BTK (Homo sapiens, UniProt Q06187)
T19 construct: purchased ProQinase GmbH (Reaction Biology); host or cells: Sf9 insect cells or E. coli (not specified per kinase)
Outline: as §1

CAMKID = target: T20, CAMKID (Homo sapiens, UniProt Q8IU85)
T20 construct: purchased ProQinase GmbH (Reaction Biology)
Outline: as §1

AKT2 = target: T21, AKT2 (Homo sapiens, UniProt P31751)
T21 construct: either as full-length or enzymatically active fragments; purchased ProQinase GmbH (Reaction Biology); host or cells: Sf9 insect cells or E. coli (not specified per kinase)
Outline: as §1

CDK2/CycD1 = target: T22, CDK2/CycD1 (Homo sapiens, UniProt P24941)
T22 construct: either as full-length or enzymatically active fragments; purchased ProQinase GmbH (Reaction Biology)
Outline: as §1

CDK5/p35NCK = target: T23, CDK5/p35NCK (Homo sapiens, UniProt Q00535)
T23 construct: either as full-length or enzymatically active fragments; purchased ProQinase GmbH (Reaction Biology)
Outline: as §1

RPS6KA4 = target: T24, RPS6KA4 (Homo sapiens, UniProt O75676)
T24 construct: either as full-length or enzymatically active fragments; purchased ProQinase GmbH (Reaction Biology)
Outline: as §1

MST4 = target: T25, MST4 (Homo sapiens, UniProt Q9P289)
T25 construct: either as full-length or enzymatically active fragments; purchased ProQinase GmbH (Reaction Biology)
Outline: as §1

SIK2 = target: T26, SIK2 (Homo sapiens, UniProt Q9H0K1)
T26 construct: either as full-length or enzymatically active fragments; purchased ProQinase GmbH (Reaction Biology)
Outline: as §1

CDK4/CycD3 = target: T27, CDK4/CycD3 (Homo sapiens, UniProt P11802)
T27 construct: either as full-length or enzymatically active fragments; purchased ProQinase GmbH (Reaction Biology); host or cells: Sf9 insect cells or E. coli (not specified per kinase)
Outline: as §1

INSRR = target: T28, INSRR (Homo sapiens, UniProt P14616)
T28 construct: either as full-length or enzymatically active fragments; purchased ProQinase GmbH (Reaction Biology)
T28 sequence (P14616 27-1297): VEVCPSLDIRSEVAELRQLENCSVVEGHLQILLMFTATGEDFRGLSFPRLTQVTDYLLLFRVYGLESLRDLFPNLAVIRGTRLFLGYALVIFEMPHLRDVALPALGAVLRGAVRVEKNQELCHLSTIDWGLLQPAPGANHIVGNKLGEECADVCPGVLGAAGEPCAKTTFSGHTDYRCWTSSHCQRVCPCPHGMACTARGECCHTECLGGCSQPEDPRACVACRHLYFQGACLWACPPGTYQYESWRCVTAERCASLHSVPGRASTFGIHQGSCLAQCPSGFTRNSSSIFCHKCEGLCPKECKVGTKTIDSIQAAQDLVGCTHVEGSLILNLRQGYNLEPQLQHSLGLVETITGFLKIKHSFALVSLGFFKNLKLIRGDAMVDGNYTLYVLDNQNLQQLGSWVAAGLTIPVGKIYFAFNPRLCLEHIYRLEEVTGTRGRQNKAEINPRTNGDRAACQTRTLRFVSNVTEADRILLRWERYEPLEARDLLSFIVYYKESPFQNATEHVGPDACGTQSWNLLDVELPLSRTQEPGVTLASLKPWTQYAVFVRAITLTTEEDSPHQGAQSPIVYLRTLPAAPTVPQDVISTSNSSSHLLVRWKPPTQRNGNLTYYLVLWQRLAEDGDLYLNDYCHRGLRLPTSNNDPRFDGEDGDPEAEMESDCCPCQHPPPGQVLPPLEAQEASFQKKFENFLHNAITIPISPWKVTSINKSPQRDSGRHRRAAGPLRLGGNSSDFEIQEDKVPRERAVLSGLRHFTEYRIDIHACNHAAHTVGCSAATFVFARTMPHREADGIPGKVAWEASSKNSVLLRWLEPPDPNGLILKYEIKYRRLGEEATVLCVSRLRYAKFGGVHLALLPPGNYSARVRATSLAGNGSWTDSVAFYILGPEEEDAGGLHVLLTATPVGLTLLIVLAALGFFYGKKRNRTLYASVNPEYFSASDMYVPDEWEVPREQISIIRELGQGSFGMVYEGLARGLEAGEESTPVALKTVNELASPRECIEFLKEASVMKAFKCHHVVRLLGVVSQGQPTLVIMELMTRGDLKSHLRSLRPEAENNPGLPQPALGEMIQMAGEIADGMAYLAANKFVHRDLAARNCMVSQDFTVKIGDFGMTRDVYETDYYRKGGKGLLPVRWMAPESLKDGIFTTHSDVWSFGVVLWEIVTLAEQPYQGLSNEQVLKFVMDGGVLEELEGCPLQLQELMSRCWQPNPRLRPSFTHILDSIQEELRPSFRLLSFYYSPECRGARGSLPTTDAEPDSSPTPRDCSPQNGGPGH
Outline: as §1

TTBK1 = target: T29, TTBK1 (Homo sapiens, UniProt Q5TCY1)
T29 construct: either as full-length or enzymatically active fragments; purchased ProQinase GmbH (Reaction Biology)
Outline: as §1

RPS6KA6 = target: T30, RPS6KA6 (Homo sapiens, UniProt Q9UK32)
T30 construct: purchased ProQinase GmbH (Reaction Biology)
T30 sequence (Q9UK32 whole entry): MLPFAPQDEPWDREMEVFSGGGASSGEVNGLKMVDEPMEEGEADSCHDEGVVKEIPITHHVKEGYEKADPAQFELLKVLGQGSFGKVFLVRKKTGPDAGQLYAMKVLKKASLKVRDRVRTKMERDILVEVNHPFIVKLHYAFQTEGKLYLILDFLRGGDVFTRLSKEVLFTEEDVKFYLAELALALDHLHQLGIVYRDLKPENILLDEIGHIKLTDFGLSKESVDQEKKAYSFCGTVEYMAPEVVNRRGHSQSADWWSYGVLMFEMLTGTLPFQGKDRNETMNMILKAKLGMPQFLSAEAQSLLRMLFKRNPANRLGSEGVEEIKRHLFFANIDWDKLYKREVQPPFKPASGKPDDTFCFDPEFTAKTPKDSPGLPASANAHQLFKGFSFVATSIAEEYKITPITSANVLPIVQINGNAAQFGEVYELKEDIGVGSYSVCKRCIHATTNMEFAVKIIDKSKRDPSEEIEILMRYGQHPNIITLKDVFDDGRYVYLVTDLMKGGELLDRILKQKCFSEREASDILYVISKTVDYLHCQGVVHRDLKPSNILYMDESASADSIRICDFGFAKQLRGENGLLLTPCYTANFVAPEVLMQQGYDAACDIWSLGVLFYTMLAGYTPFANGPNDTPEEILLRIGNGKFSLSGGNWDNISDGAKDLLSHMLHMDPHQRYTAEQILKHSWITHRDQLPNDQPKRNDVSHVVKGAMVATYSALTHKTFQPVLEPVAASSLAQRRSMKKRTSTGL
Outline: as §1

Q: For C=CC(=O)Nc1ccc(C(=O)N2CC[C@@H](Nc3ncc(C#N)cn3)C2)cc1 [Compound 4, (R)-N-(4-(3-((5-cyanopyrimidin-2-yl)amino)pyrrolidine-1-carbonyl)phenyl)acrylamide], which inhibition at 1 µM (YES) is on record?
A: -5%

Q: And the inhibition at 1 µM (DYRK2)?
A: 1%

Q: What about the inhibition at 1 µM (MST2) of the same compound?
A: 0%

Q: And the inhibition at 1 µM (TTK)?
A: 12%

Q: What about the inhibition at 1 µM (S6Kbeta) of the same compound?
A: 1%

Q: What about the inhibition at 1 µM (TSSK1) of the same compound?
A: -10%

Q: What about the inhibition at 1 µM (CDK12/CycK) of the same compound?
A: 90%

Q: What about the inhibition at 1 µM (CAMK2A) of the same compound?
A: -9%

Q: And the inhibition at 1 µM (ERBB4)?
A: 9%

Q: What about the inhibition at 1 µM (DAPK1) of the same compound?
A: -15%

Q: What about the inhibition at 1 µM (RIPK2) of the same compound?
A: 5%

Q: And the inhibition at 1 µM (BRAF)?
A: 0%

Q: And the inhibition at 1 µM (SRPK2)?
A: 0%

Q: And the inhibition at 1 µM (CLK1)?
A: -3%

Q: And the inhibition at 1 µM (TYRO3)?
A: -3%

Q: What about the inhibition at 1 µM (EPHA4) of the same compound?
A: 2%

Q: And the inhibition at 1 µM (STK39)?
A: 6%

Q: And the inhibition at 1 µM (CK1gamma1)?
A: -11%

Q: And the inhibition at 1 µM (BTK)?
A: 1%

Q: What about the inhibition at 1 µM (CAMKID) of the same compound?
A: 0%

Q: What about the inhibition at 1 µM (AKT2) of the same compound?
A: 11%

Q: What about the inhibition at 1 µM (CDK2/CycD1) of the same compound?
A: 18%

Q: What about the inhibition at 1 µM (CDK5/p35NCK) of the same compound?
A: 23%

Q: And the inhibition at 1 µM (RPS6KA4)?
A: 5%

Q: And the inhibition at 1 µM (MST4)?
A: 6%

Q: What about the inhibition at 1 µM (SIK2) of the same compound?
A: -4%

Q: What about the inhibition at 1 µM (CDK4/CycD3) of the same compound?
A: 10%

Q: What about the inhibition at 1 µM (INSRR) of the same compound?
A: 5%

Q: What about the inhibition at 1 µM (TTBK1) of the same compound?
A: -5%

Q: What about the inhibition at 1 µM (RPS6KA6) of the same compound?
A: -3%
